Measured values from patent US12116344B2, “Crystalline forms of a pharmaceutical compound” (Azafaros B.V., priority 2020, dated 2024).
Converted amounts (≈) assume the structure as drawn. Where two headings read alike, the source gives them in different places.

Assays:
Format in all cases: physicochemical
[1] = Stability of the crystalline form (transition of Form 2 into Form 3); conditions: Form 2 transitions into Form 3 above around 30° C. in about 1-5 min, or in solvent for more than 5 min at around 25° C.
Experimental: Alternatively, Form 2 transitioned into Form 3 upon equilibration in solvent (e.g. acetone) for more than 5 min at around 25° C.

[2] = Approximate solubility by incremental solvent addition with shaking/sonication; conditions: for solubility: thermodynamic from solid, about 25° C., approximate, read-out: Solubility S
Experimental: Approximate solubilities were determined by incremental addition of solvent to about 10 mg the compound and subsequent shaking and/or sonication for a short period of time. If the substance was not dissolved by addition of a total of at least 10 ml solvent, the solubility is indicated as <1 mg/ml. The experiments were conducted at about 25° C.
Compound (I) was purified using a silica gel column to remove borate esters followed by a short equilibration in acetonitrile (about 1-5 min). Solubility of purified compound (I) in acetonitrile was determined to be between 5 mg/mL and 8 mg/mL. These values were determined by adding small aliquots of solvent to −10 mg of solid compound (I) and shaking/sonicating for a short period of time at room temperature (about 25° C.).

[3] = Dynamic vapour sorption (DVS), hygroscopicity
Experimental: Dynamic vapour sorption (DVS) measurements were performed with an SPS11-100n “Sorptions Prüfsystem” from ProUmid (formerly “Projekt Messtechnik”), August-Nagel-Str. 23, 89079 Ulm (Germany). About 5 mg to 20 mg of sample was put into an aluminum sample pan. Humidity change rates of 5% per hour were used. The applied measurement program can be described as follows:
The sample was placed on an aluminium or platinum holder on top of a microbalance and allowed to equilibrate at a relative humidity (RH) of 50% before starting the pre-defined humidity programs: • (1) 2 h at 50% RH • (2) 50→0% RH (5%/h); 5 h at 0% RH • (3) 0→95% RH (5%/h); 5 h at 95% RH • (4) 95→0% RH (5%/h); 5 h at 0% RH • (5) 0→95% RH (5%/h); 5 h at 95% RH • (6) 95→50% RH (5%/h); 2 h at 50% RH

Stability of the crystalline form [1]	Solubility in water ([2]; Form 2 crystalline form, summary Table 3)	Hygroscopicity (description) [3]	solubility ([2]; organic solvent or mixture, 1-Propanol)	solubility ([2]; organic solvent or mixture, 2-Propanol)	solubility ([2]; organic solvent or mixture, Acetic acid)	solubility ([2]; organic solvent or mixture, Acetone)	solubility ([2]; organic solvent or mixture, Acetonitrile)	solubility ([2]; organic solvent or mixture, DCM)	solubility ([2]; organic solvent or mixture, Ethanol)	solubility ([2]; organic solvent or mixture, Ethyl acetate)	solubility ([2]; organic solvent or mixture, MEK)	solubility ([2]; organic solvent or mixture, Methanol)	solubility ([2]; organic solvent or mixture, THF)	solubility ([2]; Water)	SMILES
low stability	~80 mg/mL (≈ 185 mM)	hygroscopic													OC[C@H]1[C@@H](O)[C@H](O)[C@@H](O)CN1CCCCCOCc1ccc(-c2ccccc2)c(F)c1 [Form 2]
			13 to 15 mg/mL (≈ 30 to 34.6 mM)	19 to 20 mg/mL (≈ 43.8 to 46.1 mM)	> 120 mg/mL	55 to 73 mg/mL (≈ 127 to 168 mM)	5 to 8 mg/mL (≈ 11.5 to 18.5 mM)	> 160 mg/mL	40 to 53 mg/mL (≈ 92.3 to 122 mM)	12 to 13 mg/mL (≈ 27.7 to 30 mM)	40 to 50 mg/mL (≈ 92.3 to 115 mM)	> 160 mg/mL	> 200 mg/mL	~80 mg/mL (≈ 185 mM)	OC[C@H]1[C@@H](O)[C@H](O)[C@@H](O)CN1CCCCCOCc1ccc(-c2ccccc2)c(F)c1 [compound (I)]
